In patent US20070197522A1, “Dpp-iv inhibitors” (priority 2004, published 2007):

Biological target: T1, DPP-IV (Homo sapiens, UniProt P27487)
T1 construct: Soluble human DPP-IV lacking the transmembrane anchor (Gly31-Pro766) was expressed in a recombinant YEAST-strain; Pre-Pro-alpha-mating factor leader (secretion fusion) (N, cleaved yes); made in house
Experiment: Inhibition of DPP-IV peptidase activity, continuous fluorimetric assay (Gly-Pro-AMC cleavage)
Assay type: biochemical, human and porcine
Settings: IC50
Experimental: Inhibition of DPP-IV peptidase activity was monitored with a continuous fluorimetric assay. This assay is based on the cleavage of the substrate Gly-Pro-AMC (Bachem) by DPP-IV, releasing free AMC. The assay is carried out in 96-well microtiterplates. In a total volume of 100 μL, compounds are preincubated with 50 pM DPP-IV employing a buffer containing 10 mM Hepes, 150 mM NaCl, 0.005% Tween 20 (pH 7.4). […] The final concentration of DMSO is 1%. The inhibitory potential of the compounds were determined.
Soluble human DPP-IV lacking the transmembrane anchor (Gly31-Pro766) was expressed in a recombinant YEAST-strain as Pre-Pro-alpha-mating fusion. The secreted product (rhuDPP-IV-Gly31-Pro766) was purified from fermentation broth (>90% purity).

T1 sequence (P27487 31-766): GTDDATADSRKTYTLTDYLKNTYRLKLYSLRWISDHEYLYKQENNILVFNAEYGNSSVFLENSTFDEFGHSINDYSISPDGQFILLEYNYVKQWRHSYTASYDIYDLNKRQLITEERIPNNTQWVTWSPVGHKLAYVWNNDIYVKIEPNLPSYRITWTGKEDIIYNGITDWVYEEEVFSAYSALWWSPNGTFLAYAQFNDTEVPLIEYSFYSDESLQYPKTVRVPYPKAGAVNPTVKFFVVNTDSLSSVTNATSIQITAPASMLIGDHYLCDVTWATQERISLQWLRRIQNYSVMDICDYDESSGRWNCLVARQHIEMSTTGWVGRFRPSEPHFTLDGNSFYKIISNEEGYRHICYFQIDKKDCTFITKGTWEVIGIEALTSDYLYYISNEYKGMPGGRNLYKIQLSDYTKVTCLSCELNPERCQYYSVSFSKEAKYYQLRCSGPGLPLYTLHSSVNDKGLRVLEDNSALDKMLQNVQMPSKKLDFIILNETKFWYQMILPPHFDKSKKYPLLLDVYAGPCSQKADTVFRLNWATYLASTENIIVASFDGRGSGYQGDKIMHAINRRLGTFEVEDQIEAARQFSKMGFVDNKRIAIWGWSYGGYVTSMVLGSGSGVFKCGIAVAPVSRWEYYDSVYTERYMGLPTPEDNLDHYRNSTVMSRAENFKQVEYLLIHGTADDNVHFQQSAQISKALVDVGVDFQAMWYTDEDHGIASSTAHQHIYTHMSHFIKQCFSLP

IC50	Structure (SMILES)
101 to 1000 nM	N[C@@H](CC(=O)NCc1n[nH]c2ccc(Cl)cc12)Cc1ccccc1F [Example 161]

Same assay, conditions: inhibition of DPP-IV peptidase activity; 50 pM DPP-IV, 16 μM Gly-Pro-AMC, pH 7.4, 25° C.; values grouped in 3 classes; read-out: IC50

IC50	Structure (SMILES)
101 to 1000 nM	N[C@@H](CC(=O)NCc1c(Cl)cccc1Oc1ccccc1)Cc1ccccc1F [Example 71]
101 to 1000 nM	CC(C)c1ccc(CNC(=O)C[C@H](N)Cc2ccccc2F)cc1 [Example 73]
101 to 1000 nM	N[C@@H](CC(=O)NCc1ccccc1-c1ccccc1)Cc1ccccc1F [Example 75]
101 to 1000 nM	NC(CC(=O)NCc1ccc(Oc2ccccc2)cc1)Cc1ccccc1F (centres unmarked) [Example 76]
101 to 1000 nM	N[C@@H](CC(=O)NCc1cccc(Oc2ccccc2)c1)Cc1ccccc1F [Example 77]
101 to 1000 nM	Cc1noc(C)c1CCNC(=O)C[C@H](N)Cc1ccccc1F [Example 80]
1000 to 2000 nM	COc1cccc(CCNC(=O)C[C@H](N)Cc2ccccc2F)c1 [Example 81]
101 to 1000 nM	N[C@@H](CC(=O)NCCN1CCCCC1)Cc1ccccc1F [Example 82]
101 to 1000 nM	N[C@@H](CC(=O)NCCc1cccnc1)Cc1ccccc1F [Example 83]
101 to 1000 nM	Cc1ccc(C(C)NC(=O)CC(N)Cc2ccccc2F)cc1 (centres unmarked) [Example 89]
101 to 1000 nM	N[C@@H](CC(=O)NCCc1ccc(Cl)c(Cl)c1)Cc1ccccc1F [Example 92]
1000 to 2000 nM	C[C@H](CNC(=O)C[C@H](N)Cc1ccccc1F)c1ccccc1 [Example 93]
101 to 1000 nM	C[C@@H](CNC(=O)C[C@H](N)Cc1ccccc1F)c1ccccc1 [Example 94]
101 to 1000 nM	N[C@@H](CC(=O)NCCc1ccc(Cl)cc1)Cc1ccccc1F [Example 95]
101 to 1000 nM	N[C@@H](CC(=O)NCCc1ccccc1Cl)Cc1ccccc1F [Example 96]
1000 to 2000 nM	COc1ccccc1CCNC(=O)C[C@H](N)Cc1ccccc1F [Example 97]
1000 to 2000 nM	COc1ccc(CCNC(=O)C[C@H](N)Cc2ccccc2F)cc1 [Example 98]
1000 to 2000 nM	COc1ccc([C@@H](C)NC(=O)C[C@H](N)Cc2ccccc2F)cc1 [Example 99]
1000 to 2000 nM	COc1cccc(C(C)NC(=O)CC(N)Cc2ccccc2F)c1 (centres unmarked) [Example 102]
101 to 1000 nM	N[C@@H](CC(=O)NCCc1ccc(S(N)(=O)=O)cc1)Cc1ccccc1F [Example 104]
101 to 1000 nM	CN(C(=O)C[C@H](N)Cc1ccccc1F)C(c1ccccc1)c1ccccc1 [Example 105]
1000 to 2000 nM	N[C@@H](CC(=O)NCCc1ccc(F)cc1)Cc1ccccc1F [Example 110]
1000 to 2000 nM	NC(CC(=O)NCCc1cccc(F)c1)Cc1ccccc1F (centres unmarked) [Example 111]

IC50	Structure (SMILES)
101 to 1000 nM	N[C@@H](CC(=O)NCCc1cccc(Cl)c1)Cc1ccccc1F [Example 112]
101 to 1000 nM	N[C@@H](CC(=O)NCCc1ccccc1F)Cc1ccccc1F [Example 113]
101 to 1000 nM	N[C@@H](CC(=O)NCCc1c(F)cccc1Cl)Cc1ccccc1F [Example 114]
101 to 1000 nM	Cc1ccc(CNC(=O)C[C@H](N)Cc2ccccc2F)cc1 [Example 115]
1000 to 2000 nM	N[C@@H](CC(=O)NCc1cccc2cnccc12)Cc1ccccc1F [Example 116]
101 to 1000 nM	N[C@@H](CC(=O)NCc1ccccc1F)Cc1ccccc1F [Example 117]
101 to 1000 nM	N[C@@H](CC(=O)NCc1cccc(F)c1)Cc1ccccc1F [Example 118]
1000 to 2000 nM	NC(CC(=O)NC1CCc2ccccc21)Cc1ccccc1F (centres unmarked) [Example 120]
101 to 1000 nM	CN(Cc1ccccc1)C(=O)C[C@H](N)Cc1ccccc1F [Example 121]
101 to 1000 nM	CN(Cc1cccnc1)C(=O)C[C@H](N)Cc1ccccc1F [Example 122]
101 to 1000 nM	CN(Cc1ccccc1Cl)C(=O)C[C@H](N)Cc1ccccc1F [Example 123]
101 to 1000 nM	CN(Cc1cccc(C(F)(F)F)c1)C(=O)C[C@H](N)Cc1ccccc1F [Example 124]
101 to 1000 nM	CN(Cc1ccc(F)cc1)C(=O)C[C@H](N)Cc1ccccc1F [Example 125]
101 to 1000 nM	COc1ccc(CN(C)C(=O)C[C@H](N)Cc2ccccc2F)cc1 [Example 126]
101 to 1000 nM	CN1CCN(c2ccc(CNC(=O)C[C@H](N)Cc3ccccc3F)cc2)CC1 [Example 127]
101 to 1000 nM	N#Cc1ccc(CNC(=O)C[C@H](N)Cc2ccccc2F)cc1 [Example 129]
101 to 1000 nM	CCOc1ccccc1CCNC(=O)C[C@H](N)Cc1ccccc1F [Example 130]
101 to 1000 nM	N[C@@H](CC(=O)NCc1cccc2ncccc12)Cc1ccccc1F [Example 138]
101 to 1000 nM	N[C@@H](CC(=O)NCc1cccc(OC(F)F)c1)Cc1ccccc1F [Example 139]
101 to 1000 nM	Cc1nn(-c2ccccc2)c(C)c1CNC(=O)C[C@H](N)Cc1ccccc1F [Example 140]
101 to 1000 nM	CS(=O)(=O)c1ccc(CNC(=O)C[C@H](N)Cc2ccccc2F)cc1 [Example 141]
101 to 1000 nM	COc1ccc(Oc2cccc(F)c2CNC(=O)C[C@H](N)Cc2ccccc2F)cc1 [Example 142]
1000 to 2000 nM	CN(C)CCOc1ccc(CNC(=O)C[C@H](N)Cc2ccccc2F)cc1 [Example 143]

IC50	Structure (SMILES)
101 to 1000 nM	NC(CC(=O)N(Cc1ccccc1F)C1CC1)Cc1ccccc1F (centres unmarked) [Example 144]
101 to 1000 nM	N[C@@H](CC(=O)N(Cc1cccnc1)C1CC1)Cc1ccccc1F [Example 145]
101 to 1000 nM	Cn1c(CNC(=O)C[C@H](N)Cc2ccccc2F)nc2ccccc21 [Example 146]
101 to 1000 nM	N[C@@H](CC(=O)NCc1ccc(S(N)(=O)=O)cc1)Cc1ccccc1F [Example 147]
101 to 1000 nM	N[C@@H](CC(=O)NCCNC(=O)c1ccccn1)Cc1ccccc1F [Example 148]
101 to 1000 nM	Cc1onc(-c2ccccc2)c1CNC(=O)C[C@H](N)Cc1ccccc1F [Example 149]
101 to 1000 nM	Cc1ccccc1-n1nc(C)c(CNC(=O)C[C@H](N)Cc2ccccc2F)c1C [Example 151]
101 to 1000 nM	N[C@@H](CC(=O)NCc1cc(-c2ccc(Cl)cc2)no1)Cc1ccccc1F [Example 152]
1000 to 2000 nM	N[C@@H](CC(=O)NCc1ccc(OC(F)F)cc1)Cc1ccccc1F [Example 153]
101 to 1000 nM	N[C@@H](CC(=O)NCc1ccccc1N1CCCCC1)Cc1ccccc1F [Example 154]
101 to 1000 nM	N[C@@H](CC(=O)N(CCN1CCOCC1)Cc1cccnc1)Cc1ccccc1F [Example 155]
101 to 1000 nM	N[C@@H](CC(=O)NCC(c1ccccc1Cl)N1CCOCC1)Cc1ccccc1F (some centres unmarked) [Example 156]
101 to 1000 nM	N[C@@H](CC(=O)NCC(c1cccc(Cl)c1)N1CCOCC1)Cc1ccccc1F (some centres unmarked) [Example 157]
101 to 1000 nM	NC(CC(=O)NCC(c1ccc(Cl)cc1)N1CCOCC1)Cc1ccccc1F (centres unmarked) [Example 158]
101 to 1000 nM	CN1CCN(CC(NC(=O)C[C@H](N)Cc2ccccc2F)c2ccccc2)CC1 (some centres unmarked) [Example 159]
1000 to 2000 nM	CN1CCN(CC(c2ccccc2)N(C)C(=O)C[C@H](N)Cc2ccccc2F)CC1 (some centres unmarked) [Example 160]
101 to 1000 nM	N[C@@H](CC(=O)NCc1cnn(-c2ccccc2)c1)Cc1ccccc1F [Example 163]
101 to 1000 nM	N[C@@H](CC(=O)NCc1cc(Cl)ccc1-n1cncn1)Cc1ccccc1F [Example 164]
101 to 1000 nM	NC(CC(=O)NCC(c1ccccc1)N1CCOCC1)Cc1ccccc1F (centres unmarked) [Example 167]
101 to 1000 nM	N[C@@H](CC(=O)NCc1cccc(-n2cccn2)c1)Cc1ccccc1F [Example 171]
101 to 1000 nM	N[C@@H](CC(=O)NCC(c1cccc(Cl)c1)N1CCCC1)Cc1ccccc1F (some centres unmarked) [Example 172]
